“Also recorded” adds a separate entry of the source. Each block holds one compound with its values, some of them ahead of it.
How the values were obtained:
PaDLOCs [1] = assay: PaDLOC confocal imaging; format: cell-based, human; settings: for UMAP morphological clustering: PaDLOCs, CellProfiler cell-level features; for morphological deviation: monotherapy 500 nM
PHH PaDLOCs = assay: PHH liver-chip ALT/AST release and albumin production; format: cell-based, human; settings: PHH on chip; APAP and FIAU
PaDLOCs [2] = assay: PaDLOC; format: cell-based, human; settings: for albumin production: across 7 days; for ALT or AST release: monotherapy 500 nM
PaDLOCs [3] = assay: Metabolic turnover of CYP substrates in PaDLOCs; settings: PaDLOCs vs plate-cultured intact HLOs; slightly lower rates than PHHs
PaDLOCs [4] = assay: scRNA-seq differential expression in hepatocytes of drug-treated PaDLOCs; format: cell-based, human; settings: fialuridine 10 μM, tenofovir 500 nM; for KCNQ10T1 expression / RPS10 expression: compared to control; for DGAT1 expression: tenofovir-inarigivir 250 + 250 nM
72.3-derived HLOs = assay: Morphological cell profiling; format: cell-based, human; settings: for phenotypic cluster (UMAP/HDBScan): cells treated at respective IC50, 72.3-derived HLOs
dispersed HLOs = assay: Dispersed HLOs in 384-well plates, cell viability counts by high-content imaging; format: cell-based, human; settings: for cytotoxicity: monotherapies up to concentration of 100 μM, 120 hrs
patients = settings: monotherapy, two clinical trials for HBV; cited from earlier work
[5] = in vivo; cited from earlier work
[6] = single agents 500 nM, combination 250 + 250 nM

albumin production (PaDLOCs [2]; APAP 100 μM, FIAU 10 μM): diminished
SMILES: CC(=O)Nc1ccc(O)cc1 [APAP, acetaminophen]
UMAP morphological clustering (PaDLOCs [1]): unique cluster | ALT/AST release and reduced albumin production (PHH PaDLOCs): not significant | metabolic turnover rate (PaDLOCs [3]): increased rates compared to plate-cultured intact HLOs

albumin production (PaDLOCs [2]; APAP 100 μM, FIAU 10 μM): diminished
SMILES: O=c1[nH]c(=O)n([C@@H]2O[C@H](CO)[C@@H](O)[C@@H]2F)cc1I [FIAU, fialuridine]
confocal phenotype (CellMask, lipid droplets) (PaDLOCs [1]; APAP 100 μM, FIAU 10 μM, day 7 of treatment): high lipid content and a reduction of CellMask staining | ALT/AST release and reduced albumin production (PHH PaDLOCs): not significant | KCNQ10T1 expression (PaDLOCs [4]): overexpression | RPS10 expression (PaDLOCs [4]): suppressed expression | GSTP1 expression (PaDLOCs [4]): decreased expression | DGAT1 expression (PaDLOCs [4]): downregulated | multidimensional perturbation of cells (72.3-derived HLOs; sub-cytotoxic concentrations, Fig. S5 B-C): diminished mitochondrial mass and lipid accumulation

SMILES: Oc1ncnc2[nH]ncc12 [allopurinol]
phenotypic cluster (UMAP/HDBScan) (72.3-derived HLOs): Cluster α; also recorded: Cluster γ

SMILES: O=P1(N(CCCl)CCCl)NCCCO1 (stereo not shown) [cyclophosphamide]
metabolic turnover rate (PaDLOCs [3]): increased rates compared to plate-cultured intact HLOs

SMILES: CO[C@@H]1[C@H](OP(=O)(OC[C@H]2O[C@@H](n3cnc4c(N)ncnc43)C[C@@H]2O)SCOC(=O)OC(C)C)[C@@H](CO)O[C@H]1n1ccc(=O)[nH]c1=O (stereo partly shown) [inarigivir soproxil]
UMAP morphological clustering (PaDLOCs [1]): clustered with DMSO control | morphological deviation (PaDLOCs [1]): no morphological deviation from DMSO-treated control | ALT or AST release (PaDLOCs [2]): did not increase ALT or AST release | albumin production (PaDLOCs [2]; [6]): no effect was observed | cytotoxicity (dispersed HLOs): negligible cytotoxicity | toxicity in clinical trials (patients): no clear signs of toxicity

SMILES: Cc1ccnc2c1NC(=O)c1cccnc1N2C1CC1 [nevirapine]
IC50 relative to reported Cmax in patients (dispersed HLOs; 72.3 derived HLOs, Cmax ref 53): over double that of reported Cmax | phenotypic cluster (UMAP/HDBScan) (72.3-derived HLOs): Cluster γ

SMILES: CO[C@H]1/C=C/O[C@@]2(C)Oc3c(C)c(O)c4c(O)c(c(/C=N/N5CCN(C)CC5)c(O)c4c3C2=O)NC(=O)/C(C)=C\C=C\[C@H](C)[C@H](O)[C@@H](C)[C@@H](O)[C@@H](C)[C@H](OC(C)=O)[C@@H]1C [rifampin]
phenotypic cluster (UMAP/HDBScan) (72.3-derived HLOs): Cluster γ

albumin production (PaDLOCs [2]; [6]): no effect was observed
SMILES: C[C@H](Cn1cnc2c(N)ncnc21)OCP(=O)(O)O [tenofovir]
UMAP morphological clustering (PaDLOCs [1]): clustered with DMSO control | morphological deviation (PaDLOCs [1]): no morphological deviation from DMSO-treated control | ALT or AST release (PaDLOCs [2]): did not increase ALT or AST release | cytotoxicity (dispersed HLOs): negligible cytotoxicity | KCNQ10T1 expression (PaDLOCs [4]): overexpression | RPS10 expression (PaDLOCs [4]): suppressed expression | GSTP1 expression (PaDLOCs [4]): decreased expression | DGAT1 expression (PaDLOCs [4]): downregulated | Cmax [5]: ~500 nM

SMILES: Nc1nc2nc[nH]c2c(=S)[nH]1 [thioguanine]
phenotypic cluster (UMAP/HDBScan) (72.3-derived HLOs): Cluster α
